Results taken from patent US9999625B2, “Pyrrolobenzodiazepine compounds” (FEMTOGENIX LIMITED, priority 2014, dated 2018).
Entries after “also recorded” stand apart in the source; their conditions may differ.

Tests used:
[1] = system: NF-KB consensus sequence (5′-GGGACAGCCC-3′); assay: HPLC assay of DNA adduct formation; type: binding; settings: 4:1 ligand:oligonucleotide, room temperature, UV 254 nm
Text: (§1) The interactions of C1-linked PBD core compound (42), […] C1-linked PBD dimer compound (51) were studied with duplex transcription factor consensus sequences. For the C1-linked PBD core compound (42) and C1-linked PBD dimer compound (51) the study used a STAT3 consensus sequence (5′-GACATTGC-3′). Whereas for the C1-linked PBD monomer compound (49), an NF-KB consensus sequence (5′-GGGACAGCCC-3′) was used in the study. The interactions of each of the three compounds were studied with an HPLC assay utilizing a X-bridge MS […] Oligonucleotide Separation Technology (OST) column (2.3×50 mm) and a gradient of 40% acetonitrile/water and 100 mM TEAB ([…])/water as mobile phase with a flow rate of 0.5 mL/min and UV detection at 254 nm. A 4:1 molar ratio of ligand:oligonucleotide was used, with each single-stranded oligonucleotide dissolved in 1M ammonium acetate to form stock solutions of 1 mM. The oligonucleotides were initially annealed by heating their 1 mM solutions to 70° C. for 10 mins followed by gradual cooling over 8 hours and storage overnight at −20° C. Working solutions of oligonucleotides of 25 μM were then prepared by diluting the annealed stock solutions with 100 mM ammonium acetate. The ligands were dissolved in DMSO to form a stock solution of 10 mM which was stored at −20° C. for no longer than four months. Working solutions of the drug of 100 μM were prepared by diluting the stock solution with 100 mM ammonium acetate. The working solutions of the ligands were added to the working solution the oligonucleotides at RT, and the mixture incubated for different time intervals at room temperature. […] The chromatograms for HPLC assays using C1-linked PBD core (42), monomer (49) and dimer (51) compounds are shown in FIGS. 7, 8 and 9 respectively.

[2] = system: MDA MB231 (triple negative human breast cancer); assay: Cytotoxicity by MTT assay; type: cell-based; settings: 72 hours exposure, MDA MB 231
Method: MDA MB231 (triple negative human breast cancer) was obtained from the American Type Culture Collection. The cell-line was maintained in monolayer culture in 75 cm^2 flasks (TPP, Switzerland) under a humidified 5% CO2 atmosphere at 37° C. The MDA MB231 cell line was maintained in high glucose (Dulbecco's Modified Eagle Medium) DMEM (4.5 g\l; Invitrogen), foetal bovine serum (10%, Biosera UK), non-essential amino acids (ix; Invitrogen), L-glutamine (2 mM; Invitrogen) and Penicillin-Streptomycin (1% v/v, Invitrogen). For passaging, cells were washed with PBS [Phosphate-Buffered Saline] […] For seeding, cells were counted using a Neubauer haemocytometer (Assistant, Germany) by microscopy (Nikon, USA) on a non-adherent suspension of cells that were washed in PBS, trypsinised, centrifuged at 8° C. at 8000 rpm for 5 min and re-suspended in fresh medium.
The cells were grown in normal cell culture conditions at 37° C. under a 5% CO2 humidified atmosphere using appropriate medium. […] After 72 h of continuous exposure to each compound, the cytotoxicity was determined using the 3-(4,5-Dimethylthiazol-2-yl)-2,5-diphenyltetrazolium bromide (MTT) (Lancaster Synthesis Ltd, UK) colorimetric assay. Absorbance was quantified by spectrophotometry at λ=570 nm (Envision Plate Reader, PerkinElmer, USA). IC50 values were calculated by a dose-response analysis using the Prism GraphPad Prism® software. […]

[3] = system: STAT3 consensus sequence (5′-GACATTGC-3′); assay: HPLC assay of DNA adduct formation; type: binding; settings: 4:1 ligand:oligonucleotide, room temperature, UV 254 nm
Text: as §1

cancer cell lines = settings: cited from earlier work

Row | SMILES | DNA adduct formation (HPLC chromatogram) [1] | IC50 [2] | DNA adduct formation (HPLC chromatogram) [3] | activity against some cancer cell lines (cancer cell lines)
1 | COC(=O)c1cc(-c2ccc(NC(=O)c3nc(NC(=O)CO[C@H]4CCN5C(=O)c6cc(OC)c(OC)cc6N=C[C@H]45)cn3C)cc2)cn1C [Compound 49, Methyl 4-(4-(4-(2-(((1S,11aR)-7,8-dimethoxy-5-oxo-2,3,5,11a-tetrahydro-1H-benzo[e]pyrrolo[1,2-a][1,4]diazepin-1-yl)oxy)acetamido)-1-methyl-1H-imidazole-2-carboxamido)phenyl)-1-methyl-1H-pyrrole-2-carboxylate] | evidence of DNA adduct formation; also recorded: interacted with the DNA consensus sequence to form adducts | 36 ± 2.3 nM | – | –
2 | COc1cc2c(cc1OC)C(=O)N1CC[C@H](OCCCO[C@H]3CCN4C(=O)c5cc(OC)c(OC)cc5N=C[C@H]34)[C@H]1C=N2 [Compound 51, (1S,1′S)-1,1′-(Propane-1,3-diylbis(oxy))bis(7,8-dimethoxy-1,2,3,11a-tetrahydro-5H-benzo[e]pyrrolo [1,2-a][1,4]diazepin-5-one)] | – | 236 ± 27 nM | evidence of DNA adduct formation; also recorded: interacted with the DNA consensus sequence to form adducts | –
3 | COc1cc2c(cc1OC)C(=O)N1CC[C@H](O)[C@H]1C=N2 [Compound 42, (1S,11aR)-1-Hydroxy-7,8-dimethoxy-1,2,3,11a-tetrahydro-5H-benzo[e]pyrrolo[1,2-a][1,4]diazepin-5-one] | – | – | evidence of DNA adduct formation; also recorded: interacted with the DNA consensus sequence to form adducts | –
4 | COC(=O)c1cc(-c2ccc(NC(=O)c3nc(NC(=O)CCCOc4cc5c(cc4OC)C(=O)N4CCC[C@H]4C=N5)cn3C)cc2)cn1C [KMR-28-39] | – | – | – | femtomolar activity
